# According to patent US11148999B2, “Nitric oxide donors” (MedChem Partners, LLC, priority 2016, dated 2021):
# Tested on: diabetic Lep/r-db/db mice
# Test: Initial dose range wound healing study, murine diabetic wound model, PVA gel
# Assay type: in vivo
# Conditions: PVA gel with 10, 50, 100 uM test article versus PVA gel alone, applied twice a day, day 7, 1-cm^2 full-thickness wound
# Protocol: A murine diabetic wound model for utilized to test the ability of the gel formulation of the invention to accelerate wound healing. Specifically, diabetic Lep/r-db/db mice were used to study the effects of the gel formulation on granulation tissue thickness, density of α-smooth muscle actin-positive myofibroblasts, wound healing kinetics, blood vessel density, cell proliferation, and tissue ingrowth.
# An initial dose range study was performed to study the effects of the compounds of the invention on wound healing. Five homozygous diabetic 8-12 weeks old, Lep/r-db/db male mice (strain C57BL/KsJ-Leprdb) were anesthetized with 60 mg/kg pentobarbital and disinfected with 70% alcohol. Subsequently, a 1-cm^2 full-thickness wound was excised on the dorsa of the mice. The mice were then treated with either PVA gel containing no test article (Control), PVA gel containing test article (i.e., compound 506-3-111) at 10 uM concentration, PVA gel containing test article at 50 uM concentration, or PVA gel containing test article at 100 uM concentration. Immediately after wounding, the experimental groups had the NO releasing gel material applied to the wound twice a day and the control group had only the un-medicated gel applied to the wound. Dressing changes were performed twice daily. […]
row,SMILES,wound size
1,"CCCCCCCCCCC(=O)OCO/N=[N+](\[O-])N(CC)CC [Compound 506-3-111, (Z)-3,3-diethyl-1-((undecanoyloxy)methoxy)triaz-1-ene 2-oxide]",clear dose dependent reduction in wound size

# Same assay, conditions: PVA gel, 10 to 100 uM, topical twice a day, 7 days
row,SMILES,tolerability (adverse effects or toxicity)
1,"CCCCCCCCCCC(=O)OCO/N=[N+](\[O-])N(CC)CC [Compound 506-3-111, (Z)-3,3-diethyl-1-((undecanoyloxy)methoxy)triaz-1-ene 2-oxide]",well tolerated with no adverse effects or toxicity even at the highest dose

# Tested on: not listed separately
# Test: Stability of the pure compound on storage
# Assay type: physicochemical
# Conditions: not given
row,SMILES,stability of the pure compound
1,"CCCCCCCCCCC(=O)OCO/N=[N+](\[O-])N(CC)CC [Compound 506-3-111, (Z)-3,3-diethyl-1-((undecanoyloxy)methoxy)triaz-1-ene 2-oxide]",stable for over one year

# Tested on: not listed separately
# Test: NO release in PBS versus rat plasma (Griess reaction)
# Assay type: in vitro ADME
# Conditions: 100 μM in PBS versus rat plasma, 37° C., readings at 0 minutes, 30 minutes, 3 hours; classified and ranked on NO release behavior
# Protocol: The compounds were dissolved in DMSO and added to PBS and then incubated at 37° C. NO release was measured using the Griess reaction at t=0, 30 minutes, and 3 hours. NO production in this assay was an indication of the hydrolytic instability of the capping group. […] Compounds were dissolved in DMSO and added to rat plasma and then incubated at 37° C. NO release was measured using the Griess reaction at t=0, 30 minutes, and 3 hours. Differences in the amount and rate of NO release reflect the kinetics of hydrolysis of the capping groups by proteases endogenous to the rat plasma. This experiment reflected the ability of compounds to release NO in vivo. For both panels A and B, the compounds tested are labelled as: 506-3-91 is Compound 31, 506-3-159 is Compound 33, 506-3-123 is Compound 32, 506-3-149 is Compound 30, 506-3-117 is Compound 26506-3-121 is Compound 29, 506-3-153 is Compound 27, 506-3-151 is Compound 28, 506-3-145 is Compound 7, 506-3-93 is Compound 10, 506-3-113 is Compound 4, 506-3-111 is Compound 11, 506-3-133 is Compound 12, 506-3-131 is Compound 13, 506-3-81 is Compound 14, 506-3-103 is Compound 18, 506-3-157 is Compound 19, 506-3-115 is Compound 9, 506-3-143 is Compound 6, and 506-3-147 is Compound 8. For all compounds, three time points are shown (left to right for each labelled compound): 0 time point, 30 minutes time point, and 3 hours time point.
# Compounds were tested for release of NO in PBS versus rat plasma using the Griess reaction. The Griess reaction works by the colorimetric measurement of nitrite levels which is the primary breakdown product of NO. To determine stability, as well as NO release behavior in a biological environment, the compounds were tested for NO release in both PBS and rat plasma at 37° C. […]
# Additional experiments were carried out to test the NO release capability of 100 μM of the compounds in PBS versus Rat Plasma. In these experiments, NO release kinetics was explored by taking readings at 0 minutes, 30 minutes, and 3 hours. The results are shown in FIG. 2, panels A and B. From these studies, the compounds were classified and ranked based on their NO release behavior as shown in the Table below.
row,SMILES,Release Behavior
1,"CCN(CC)/[N+]([O-])=N/OCN1C(=O)c2ccccc2C1=O [Compound 506-3-81, (Z)-1-((1,3-dioxoisoindolin-2-yl)methoxy)-3,3-diethyltriaz-1-ene 2-oxide]",unstable
2,"O=C1c2ccccc2C(=O)N1CO/N=[N+](\[O-])N1CCCC1CO (stereo not shown) [Compound 506-3-91, (Z)-2-((1,3-dioxoisoindolin-2-yl)methoxy)-1-(2-(hydroxymethyl)pyrrolidin-1-yl)diazene oxide]",unstable
3,"CCN(CC)/[N+]([O-])=N/OCOC(=O)C(C)(C)NC(=O)OC(C)(C)C [Compound 506-3-93, (Z)-3-ethyl-10,10,14,14-tetramethyl-9,12-dioxo-6,8,13-trioxa-3,4,5,11-tetraazapentadec-4-ene 4-oxide]",slow/low release
4,"CCN(CC)/[N+]([O-])=N/OCSC [Compound 506-3-103, (Z)-3,3-diethyl-1-((methylthio)methoxy)triaz-1-ene 2-oxide]",slow/low release
5,"CCCCCCCCCCC(=O)OCO/N=[N+](\[O-])N(CC)CC [Compound 506-3-111, (Z)-3,3-diethyl-1-((undecanoyloxy)methoxy)triaz-1-ene 2-oxide]",quick/long release
6,"CCN(CC)/[N+]([O-])=N/OCOC(=O)[C@@H](NC(=O)OC(C)(C)C)C(C)C [Compound 506-3-113, (S,Z)-3-ethyl-10-isopropyl-14,14-dimethyl-9,12-dioxo-6,8,13-trioxa-3,4,5,11-tetraazapentadec-4-ene 4-oxide]",slow onset
7,"CCC(CC)C(=O)OCO/N=[N+](\[O-])N(CC)CC [Compound 506-3-115, (Z)-3,3-diethyl-1-(((2-ethylbutanoyl)oxy)methoxy)triaz-1-ene 2-oxide]",slow onset
8,"CC(C)(C)C(=O)OCO/N=[N+](\[O-])N1CCCC1CO (stereo not shown) [Compound 506-3-117, (Z)-1-(2-(hydroxymethyl)pyrrolidin-1-yl)-2-((pivaloyloxy)methoxy)diazene oxide]",steady
9,"CC(C)OC(=O)OCO/N=[N+](\[O-])N1CCCC1CO (stereo not shown) [Compound 506-3-121, (Z)-1-(2-(hydroxymethyl)pyrrolidin-1-yl)-2-(((isopropoxycarbonyl)oxy)methoxy)diazene oxide]",slow/low release
10,"CSCO/N=[N+](\[O-])N1CCCC1CO (stereo not shown) [Compound 506-3-123, (Z)-1-(2-(hydroxymethyl)pyrrolidin-1-yl)-2-((methylthio)methoxy)diazene oxide]",slow/low release
11,"CCN(CC)/[N+]([O-])=N/OC(C)OC(=O)OC(C)C (stereo not shown) [Compound 506-3-131, (Z)-3-ethyl-7,11-dimethyl-9-oxo-6,8,10-trioxa-3,4,5-triazadodec-4-ene 4-oxide]",steady/low
12,"CCN(CC)/[N+]([O-])=N/OC(C)OC(=O)OC(C)(C)C (stereo not shown) [Compound 506-3-133, (Z)-3-ethyl-7,11,11-trimethyl-9-oxo-6,8,10-trioxa-3,4,5-triazadodec-4-ene 4-oxide]",unstable
13,"CCCC(=O)OCO/N=[N+](\[O-])N(CC)CC [Compound 506-3-143, (Z)-1-((butyryloxy)methoxy)-3,3-diethyltriaz-1-ene 2-oxide]",intermediate
14,"CCN(CC)/[N+]([O-])=N/OCOC(=O)c1ccccc1 [Compound 506-3-145, (Z)-1-((benzoyloxy)methoxy)-3,3-diethyltriaz-1-ene 2-oxide]",steady
15,"CCC(CC)C(=O)OCO/N=[N+](\[O-])N1CCCC1CO (stereo not shown) [Compound 506-3-149, (Z)-2-(((2-ethylbutanoyl)oxy)methoxy)-1-(2-(hydroxymethyl)pyrrolidin-1-yl)diazene oxide]",slow onset
16,"O=C(OCO/N=[N+](\[O-])N1CCCC1CO)c1ccccc1 (stereo not shown) [Compound 506-3-151, (Z)-2-((benzoyloxy)methoxy)-1-(2-(hydroxymethyl)pyrrolidin-1-yl)diazene oxide]",slow onset
17,"CCCC(=O)OCO/N=[N+](\[O-])N1CCCC1CO (stereo not shown) [Compound 506-3-153, (Z)-2-((butyryloxy)methoxy)-1-(2-(hydroxymethyl)pyrrolidin-1-yl)diazene oxide]",steady/low
18,"CCN(CC)/[N+]([O-])=N/OC[S+](C)[O-] (stereo not shown) [Compound 506-3-157, (Z)-3,3-diethyl-1-((methylsulfinyl)methoxy)triaz-1-ene 2-oxide]",slow/low release
19,"C[S+]([O-])CO/N=[N+](\[O-])N1CCCC1CO (stereo not shown) [Compound 506-3-159, (Z)-1-(2-(hydroxymethyl)pyrrolidin-1-yl)-2-((methylsulfinyl)methoxy)diazene oxide]",slow/low release
